Measurements published in US12180187B2, “1-phenyl-5-azinylpyrazolyl-3-oxyalkyl acids and their use for controlling unwanted plant growth” (BAYER AKTIENGESELLSCHAFT, priority 2019, dated 2024).

How the values were obtained:
ALOMY [1] = test: Pre-emergence action against ALOMY, 1280 g/ha; format: in vivo, Alopecurus myosuroides; conditions: visual scoring after about 3 weeks vs untreated controls, 100% = plants have died, 0% = like control plants
Procedure, shortened: (§1)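 Visual % scoring, roughly 3 weeks post-application, against untreated controls; 100% means plants died. Treatment went onto the soil covering sown seeds (sandy loam), as aqueous suspension or emulsion plus 0.5% additive.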

DIGSA [2] = test: Pre-emergence action against DIGSA, 1280 g/ha; format: in vivo, Digitaria sanguinalis; conditions: visual scoring after about 3 weeks vs untreated controls, 100% = plants have died, 0% = like control plants
Procedure, shortened: as §1

ECHCG [3] = test: Pre-emergence action against ECHCG, 1280 g/ha; format: in vivo, Echinochloa crus-galli; conditions: visual scoring after about 3 weeks vs untreated controls, 100% = plants have died, 0% = like control plants
Procedure, shortened: as §1

LOLRI [4] = test: Pre-emergence action against LOLRI, 1280 g/ha; format: in vivo, Lolium rigidum; conditions: visual scoring after about 3 weeks vs untreated controls, 100% = plants have died, 0% = like control plants
Procedure, shortened: as §1

POAAN [5] = test: Pre-emergence action against POAAN, 1280 g/ha; format: in vivo, Poa annua; conditions: visual scoring after about 3 weeks vs untreated controls, 100% = plants have died, 0% = like control plants
Procedure, shortened: as §1

SETVI [6] = test: Pre-emergence action against SETVI, 1280 g/ha; format: in vivo, Setaria viridis; conditions: visual scoring after about 3 weeks vs untreated controls, 100% = plants have died, 0% = like control plants
Procedure, shortened: as §1

AMARE [7] = test: Pre-emergence action against AMARE, 1280 g/ha; format: in vivo, Amaranthus retroflexus; conditions: scored visually after about 3 weeks vs untreated controls (100% = plants have died)
Procedure, shortened: as §1

MATIN [8] = test: Pre-emergence action against MATIN, 1280 g/ha; format: in vivo, Tripleurospermum inodorum (Matricaria inodora); conditions: scored visually after about 3 weeks vs untreated controls (100% = plants have died)
Procedure, shortened: as §1

STEME = test: Pre-emergence action against STEME, 1280 g/ha; format: in vivo, Stellaria media; conditions: scored visually after about 3 weeks vs untreated controls (100% = plants have died)
Procedure, shortened: as §1

VERPE [9] = test: Pre-emergence action against VERPE, 1280 g/ha; format: in vivo, Veronica persica; conditions: scored visually after about 3 weeks vs untreated controls (100% = plants have died)
Procedure, shortened: as §1

ALOMY [10] = test: Pre-emergence action at 320 g/ha against ALOMY; format: in vivo, Alopecurus myosuroides; conditions: scored visually after about 3 weeks vs untreated controls (100% = plants have died)
Procedure, shortened: (§2)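 Weed seeds sown in pots and covered with soil; compounds formulated as WP or EC were sprayed onto the soil surface as aqueous suspension or emulsion with 0.5% additive at 600 l/ha water. Pots kept in greenhouse; activity scored visually after about 3 weeks versus untreated controls (100% = plants dead, 0% = like control).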

AVEFA = test: Pre-emergence action at 320 g/ha against AVEFA; format: in vivo; conditions: visual scoring after about 3 weeks vs untreated controls
Procedure, shortened: as §2

DIGSA [11] = test: Pre-emergence action at 320 g/ha against DIGSA; format: in vivo, Digitaria sanguinalis; conditions: visual scoring after about 3 weeks vs untreated controls
Procedure, shortened: as §2

ECHGC = test: Pre-emergence action at 320 g/ha against ECHGC; format: in vivo, Echinochloa crus-galli; conditions: visual scoring after about 3 weeks vs untreated controls
Procedure, shortened: as §2

LOLRI [12] = test: Pre-emergence action at 320 g/ha against LOLRI; format: in vivo, Lolium rigidum; conditions: visual scoring after about 3 weeks vs untreated controls
Procedure, shortened: as §2

SETVI [13] = test: Pre-emergence action at 320 g/ha against SETVI; format: in vivo, Setaria viridis; conditions: visual scoring after about 3 weeks vs untreated controls
Procedure, shortened: as §2

ABUTH [14] = test: Pre-emergence action at 320 g/ha against ABUTH; format: in vivo, Abutilon theophrasti; conditions: greenhouse, scored visually after about 3 weeks vs untreated controls, 100% = plants have died, 0% = like control plants
Excerpt: b) Seeds of monocotyledonous and dicotyledonous weed plants and crop plants are placed in plastic or organic planting pots and covered with soil. The compounds of the invention, formulated in the form of wettable powders (WP) or as emulsion concentrates (EC), are then applied onto the surface of the covering soil as aqueous suspension or emulsion with addition of 0.5% additive at a water application rate of 600 l/ha (converted). After the treatment, the pots are placed in a greenhouse and kept under good growth conditions for the trial plants. After about 3 weeks, the effect of the preparations is scored visually in comparison with untreated controls as percentages. For example, 100% activity=the plants have died, 0% activity=like control plants. Tables 13 to 26 below show the effects of selected compounds of the general formula (I) on various harmful plants and at an application rate corresponding to 320 g/ha, which were obtained by the experimental procedure mentioned above.

AMARE [15] = test: Pre-emergence action at 320 g/ha against AMARE; format: in vivo, Amaranthus retroflexus; conditions: visual scoring after about 3 weeks vs untreated controls
Procedure, shortened: as §2

MATIN [16] = test: Pre-emergence action at 320 g/ha against MATIN; format: in vivo, Tripleurospermum inodorum (Matricaria inodora); conditions: visual scoring after about 3 weeks vs untreated controls
Procedure, shortened: as §2

POLCO = test: Pre-emergence action at 320 g/ha against POLCO; format: in vivo, Fallopia convolvulus (Polygonum convolvulus); conditions: visual scoring after about 3 weeks vs untreated controls
Procedure, shortened: as §2

VERPE [17] = test: Pre-emergence action at 320 g/ha against VERPE; format: in vivo, Veronica persica; conditions: visual scoring after about 3 weeks vs untreated controls
Procedure, shortened: as §2

VIOTR = test: Pre-emergence action at 320 g/ha against VIOTR; format: in vivo, Viola tricolor; conditions: dosage 320 g/ha
Procedure, shortened: as §2

ALOMY [18] = test: Post-emergence action against ALOMY, 1.28 kg/ha; format: in vivo, Alopecurus myosuroides; conditions: dosage 1280 g/ha, visual rating about 3 weeks after treatment vs untreated controls
Procedure, shortened: (§3)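 Weeds grown in sandy loam in a greenhouse were sprayed at the one-leaf stage, 2–3 weeks after sowing, with WP or EC formulations in water containing 0.5% additive at 600 L/ha. About 3 weeks later, damage was scored visually versus untreated controls (0% = like control, 100% = dead).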

DIGSA [19] = test: Post-emergence action against DIGSA, 1.28 kg/ha; format: in vivo, Digitaria sanguinalis; conditions: dosage 1280 g/ha, visual rating about 3 weeks after treatment vs untreated controls
Procedure, shortened: as §3

ECHCG [20] = test: Post-emergence action against ECHCG, 1.28 kg/ha; format: in vivo, Echinochloa crus-galli; conditions: dosage 1280 g/ha, visual rating about 3 weeks after treatment vs untreated controls
Procedure, shortened: as §3

LOLRI [21] = test: Post-emergence action against LOLRI, 1.28 kg/ha; format: in vivo, Lolium rigidum; conditions: dosage 1280 g/ha, visual rating about 3 weeks after treatment vs untreated controls
Procedure, shortened: as §3

POAAN [22] = test: Post-emergence action against POAAN, 1.28 kg/ha; format: in vivo, Poa annua; conditions: dosage 1280 g/ha, visual rating about 3 weeks after treatment vs untreated controls
Procedure, shortened: as §3

ABUTH [23] = test: Post-emergence action against ABUTH, 1.28 kg/ha; format: in vivo, Abutilon theophrasti; conditions: dosage 1280 g/ha, visual rating about 3 weeks after treatment vs untreated controls (100% = plants died)
Procedure, shortened: as §3

AMARE [24] = test: Post-emergence action against AMARE, 1.28 kg/ha; format: in vivo, Amaranthus retroflexus; conditions: dosage 1280 g/ha, visual rating about 3 weeks after treatment vs untreated controls (100% = plants died)
Procedure, shortened: as §3

VERPE [25] = test: Post-emergence action against VERPE, 1.28 kg/ha; format: in vivo, Veronica persica; conditions: dosage 1280 g/ha, visual rating about 3 weeks after treatment vs untreated controls (100% = plants died)
Procedure, shortened: as §3

PHBPU = test: Pre-emergence action at 320 g/ha against PHBPU; format: in vivo; conditions: visual scoring after about 3 weeks vs untreated controls
Procedure, shortened: as §2

SMILES | Pre-emergence action at 320 g/ha against ALOMY in % (ALOMY [10]) [%] | Pre-emergence action against AVEFA in % (AVEFA) [%] | Pre-emergence action against DIGSA in % (DIGSA [11]) [%] | Pre-emergence action against ECHGC in % (ECHGC) [%] | Pre-emergence action against LOLRI in % (LOLRI [12]) [%] | Pre-emergence action against SETVI in % (SETVI [13]) [%] | Pre-emergence action at 320 g/ha against ABUTH in % (ABUTH [14]) [%] | Pre-emergence action against AMARE in % (AMARE [15]) [%] | Pre-emergence action against MATIN in % (MATIN [16]) [%] | Pre-emergence action against POLCO in % (POLCO) [%] | Pre-emergence action against VERPE in % (VERPE [17]) [%] | Pre-emergence action against VIOTR in % (VIOTR) [%] | Pre-emergence action against PHBPU in % (PHBPU) [%] | further results
CON(C)C(=O)COc1nn(-c2ccccc2F)c(-c2ccc(F)nc2)c1Br [Example X-019] | 100 | 80 | 100 | 100 | 100 | 100 | 80 | 100 | 100 | 90 | 100 | 100 |  | Pre-emergence action against ALOMY (ALOMY [1]): 100%; Pre-emergence action against DIGSA (DIGSA [2]): 100%; Pre-emergence action against ECHCG (ECHCG [3]): 100%; Pre-emergence action against LOLRI (LOLRI [4]): 100%; Pre-emergence action against POAAN (POAAN [5]): 100%; Pre-emergence action against SETVI (SETVI [6]): 100%; Pre-emergence action against AMARE (AMARE [7]): 100%; Pre-emergence action against MATIN (MATIN [8]): 100%; Pre-emergence action against STEME (STEME): 90%; Pre-emergence action against VERPE (VERPE [9]): 90%; Post-emergence action against ALOMY (ALOMY [18]): 100%; Post-emergence action against DIGSA (DIGSA [19]): 90%; Post-emergence action against ECHCG (ECHCG [20]): 100%; Post-emergence action against LOLRI (LOLRI [21]): 90%; Post-emergence action against POAAN (POAAN [22]): 100%; Post-emergence action against ABUTH (ABUTH [23]): 90%; Post-emergence action against AMARE (AMARE [24]): 90%; Post-emergence action against VERPE (VERPE [25]): 90%
CCOC(=O)CN(C)S(=O)(=O)NC(=O)COc1nn(-c2ccccc2F)c(-c2ccc(F)nc2)c1Br [Example X-031] | 90 | 80 | 100 | 80 | 80 | 100 | 80 | 90 | 80 | 80 | 90 | 90 | 90 | 
COC(=O)[C@@H](C)Oc1nn(-c2cc(F)ccc2F)c(-c2cncc(F)c2)c1I [VII-135] | 100 | 90 |  | 90 | 100 | 100 | 80 | 100 | 90 | 100 | 100 | 100 | 90 | 
CCOC(=O)[C@@H](C)Oc1nn(-c2cc(F)ccc2F)c(-c2cncc(F)c2)c1Br [VII-136] | 100 | 90 |  | 90 | 90 | 100 | 80 | 100 | 90 | 100 | 100 | 100 | 90 | 
